Laboratory results taken from patent publication US20230416205A1, “COMPOUNDS, COMPOSITIONS, AND METHODS” (Denali Therapeutics Inc, priority 2020, published 2023).
pIC50: −log10 of the molar value. Where two headings read alike, the source gives them in different places.

Test system: NLRP3
Assay: IL-1β secretion assay in PMA-differentiated, LPS/nigericin-stimulated THP-1 cells (384-well, ELISA read-out)
Format: cell-based, human
Details: Homo sapiens
Outline: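 Secreted IL-1β quantified by capture ELISA from supernatants of PMA-differentiated THP-1 cells (30K per well). Sequence: LPS 25 ng/mL priming 2 h, compound 1 h, nigericin 2 h; dose-responses normalized between high (LPS plus 5 μM nigericin) and low (LPS alone) controls.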

[1] = THP-1, IL-1β secretion, PMA-differentiated THP-1 cells, LPS then nigericin stimulation, ELISA read at 450 nm, read-out: Activity
[2] = THP-1, Table 4, IL-1β secretion, LPS/nigericin-stimulated THP-1 cells, read-out: IC50

## O=C(CN1C[C@]2(C[C@H]2F)c2cc(C3CC3)ccc2C1=O)Nc1ncc(F)cn1 [Example 231]
[1]
  pIC50: > 5.00
[2]
  pIC50: 7.30

## O=C(CN1C[C@]2(C[C@H]2F)c2cc(C3CC3)ccc2C1=O)Nc1ncc(Cl)cn1 [Example 232]
[1]
  pIC50: > 5.00
[2]
  pIC50: 7.55

## N#Cc1cnc(NC(=O)CN2C[C@]3(C[C@H]3F)c3cc(C4CC4)ccc3C2=O)nc1 [Example 233]
[1]
  pIC50: > 5.00
[2]
  pIC50: 7.35

## O=C(CN1C[C@]2(C[C@H]2F)c2cc(I)ccc2C1=O)Nc1ncc(F)cn1 [Example 246]
[1]
  pIC50: > 5.00
[2]
  pIC50: 8.22

## O=C(CN1C[C@]2(C[C@H]2F)c2cc(I)ccc2C1=O)Nc1ncccn1 [Example 247]
[1]
  pIC50: > 5.00
[2]
  pIC50: 8.00

## O=C(CN1C[C@]2(C[C@H]2F)c2cc(C3(F)CC3)ccc2C1=O)Nc1ncc(F)cn1 [Example 249]
[1]
  pIC50: > 5.00
[2]
  pIC50: 7.82

## O=C(CN1C[C@]2(C[C@H]2F)c2cc(C3(F)CC3)ccc2C1=O)Nc1ncc(Cl)cn1 [Example 250]
[1]
  pIC50: > 5.00
[2]
  pIC50: 7.85

## O=C(CN1CC2(CC2)c2cc(C3(F)CC3)ccc2C1=O)Nc1ncc(F)cn1 [Example 255, 2-[6-(1-fluorocyclopropyl)-1-oxospiro[3H-isoquinoline-4,1′-cyclopropane]-2-yl]-N-(5-fluoropyrimidin-2-yl)acetamide]
[1]
  pIC50: > 5.00
[2]
  pIC50: 6.83

## O=C(CN1CC2(CC2)c2cc(Br)ccc2C1=O)Nc1ncc(C2CCC2)cn1 [Example 256, 2-(6-bromo-1-oxospiro[3H-isoquinoline-4,1′-cyclopropane]-2-yl)-N-(5-cyclobutylpyrimidin-2-yl)acetamide]
[1]
  pIC50: > 5.00
[2]
  pIC50: 6.40

## Cn1cc(-c2cnc(NC(=O)CN3CC4(CC4)c4cc(Br)ccc4C3=O)nc2)cn1 [Example 257, 2-(6-bromo-1-oxospiro[3H-isoquinoline-4,1′-cyclopropane]-2-yl)-N-[5-(1-methylpyrazol-4-yl)pyrimidin-2-yl]acetamide]
[1]
  pIC50: > 5.00
[2]
  pIC50: 6.41

## O=C(CN1CC2(CC2)c2cc(Br)ccc2C1=O)Nc1ncc(C2CCOC2)cn1 (centres unmarked) [Example 258, 2-(6-bromo-1-oxospiro[3H-isoquinoline-4,1′-cyclopropane]-2-yl)-N-[5-(oxolan-3-yl)pyrimidin-2-yl]acetamide]
[1]
  pIC50: > 5.00
[2]
  pIC50: 6.28

## Cc1nc(NC(=O)CN2CC3(CC3)c3cc(Br)ccc3C2=O)ncc1C#N [Example 259, 2-(6-bromo-1-oxospiro[3H-isoquinoline-4,1′-cyclopropane]-2-yl)-N-(5-cyano-4-methylpyrimidin-2-yl)acetamide]
[1]
  pIC50: > 5.00
[2]
  pIC50: 6.36

## O=C(CN1CC2(CC2)c2cc(Br)ccc2C1=O)Nc1nc2cnccn2n1 [Example 260, 2-(6-bromo-1-oxospiro[3H-isoquinoline-4,1′-cyclopropane]-2-yl)-N-([1,2,4]triazolo[1,5-a]pyrazin-2-yl)acetamide]
[1]
  pIC50: > 5.00
[2]
  pIC50: 6.69

## O=C(CN1CC2(CC2)c2cc(Br)ccc2C1=O)Nc1nc2cc(Cl)ccn2n1 [Example 261, 2-(6-bromo-1-oxospiro[3H-isoquinoline-4,1′-cyclopropane]-2-yl)-N-(7-chloro-[1,2,4]triazolo[1,5-a]pyridin-2-yl)acetamide]
[1]
  pIC50: > 5.00
[2]
  pIC50: 6.65

## COc1ccc2nc(NC(=O)CN3CC4(CC4)c4cc(Br)ccc4C3=O)nn2c1 [Example 262, 2-(6-bromo-1-oxospiro[3H-isoquinoline-4,1′-cyclopropane]-2-yl)-N-(6-methoxy-[1,2,4]triazolo[1,5-a]pyridin-2-yl)acetamide]
[1]
  pIC50: > 5.00
[2]
  pIC50: 6.60

## O=C(CN1CC2(CC2)c2cc(Br)ccc2C1=O)Nc1nc2ccc(F)cn2n1 [Example 263, 2-(6-bromo-1-oxospiro[3H-isoquinoline-4,1′-cyclopropane]-2-yl)-N-(6-fluoro-[1,2,4]triazolo[1,5-a]pyridin-2-yl)acetamide]
[1]
  pIC50: > 5.00
[2]
  pIC50: 6.55

## O=C(CN1CC2(CC2)c2cc(Br)ccc2C1=O)Nc1nc2ccc(Cl)cn2n1 [Example 264, 2-(6-bromo-1-oxospiro[3H-isoquinoline-4,1′-cyclopropane]-2-yl)-N-(6-chloro-[1,2,4]triazolo[1,5-a]pyridin-2-yl)acetamide]
[1]
  pIC50: > 5.00
[2]
  pIC50: 6.51

## O=C(CN1CC2(CC2)c2cc(Br)ccc2C1=O)Nc1nc2cc(C(F)(F)F)ccn2n1 [Example 265, 2-(6-bromo-1-oxospiro[3H-isoquinoline-4,1′-cyclopropane]-2-yl)-N-[7-(trifluoromethyl)-[1,2,4]triazolo[1,5-a]pyridin-2-yl]acetamide]
[1]
  pIC50: > 5.00
[2]
  pIC50: 6.47

## O=C(CN1CC2(CC2)c2cc(Br)ccc2C1=O)Nc1nc2ccc(F)cc2o1 [Example 267, 2-(6-bromo-1-oxospiro[3H-isoquinoline-4,1′-cyclopropane]-2-yl)-N-(6-fluoro-1,3-benzoxazol-2-yl)acetamide]
[1]
  pIC50: > 5.00
[2]
  pIC50: 6.44

## O=C(CN1CC2(CC2)c2cc(Br)ccc2C1=O)N[C@@H]1CCCN(C2CC2)C1 [Example 268, 2-(6-bromo-1-oxospiro[3H-isoquinoline-4,1′-cyclopropane]-2-yl)-N-[(3R)-1-cyclopropylpiperidin-3-yl]acetamide]
[1]
  pIC50: > 5.00
[2]
  pIC50: 6.72

## O=C(CN1CC2(CC2)c2cc(Br)ccc2C1=O)Nc1ncc(I)cn1 [Example 269, 2-(6-bromo-1-oxospiro[3H-isoquinoline-4,1′-cyclopropane]-2-yl)-N-(5-iodopyrimidin-2-yl)acetamide]
[1]
  pIC50: > 5.00
[2]
  pIC50: 7.06

## O=C(CN1CC2(CC2)c2cc(Br)ccc2C1=O)Nc1ncc(OC(F)F)cn1 [Example 270, 2-(6-bromo-1-oxospiro[3H-isoquinoline-4,1′-cyclopropane]-2-yl)-N-[5-(difluoromethoxy)pyrimidin-2-yl]acetamide]
[1]
  pIC50: > 5.00
[2]
  pIC50: 6.54

## O=C(CN1C[C@]2(C[C@H]2F)c2cc(Br)ccc2C1=O)Nc1nc2ccccn2n1 [Example 271]
[1]
  pIC50: > 5.00
[2]
  pIC50: 7.54

## N#Cc1cnc(NC(=O)CN2C[C@]3(C[C@H]3F)c3cc(Br)ccc3C2=O)nc1 [Example 272]
[1]
  pIC50: > 5.00
[2]
  pIC50: 7.85

## C=C(F)c1ccc2c(c1)[C@@]1(C[C@H]1F)CN(CC(=O)Nc1ncc(F)cn1)C2=O [Example 273]
[1]
  pIC50: > 5.00
[2]
  pIC50: 7.23

## Cc1cnc(NC(=O)CN2C[C@]3(C[C@H]3F)c3cc(Br)ccc3C2=O)nc1 [Example 274]
[1]
  pIC50: > 5.00
[2]
  pIC50: 7.64

## N#Cc1cnc(NC(=O)CN2C[C@]3(C[C@H]3F)c3cc(Br)ccc3C2=O)c(F)c1 [Example 275, 2-[(2′r,4s)-6-bromo-2′-fluoro-1-oxospiro[3H-isoquinoline-4,1′-cyclopropane]-2-yl]-N-(5-cyano-3-fluoropyridin-2-yl)acetamide]
[1]
  pIC50: > 5.00
[2]
  pIC50: 7.15

## O=C(CN1C[C@]2(C[C@H]2F)c2cc(Cl)ccc2C1=O)Nc1ncc(F)cn1 [Example 276]
[1]
  pIC50: > 5.00
[2]
  pIC50: 7.10

## C[C@@H](F)[C@H]1CN(CC(=O)Nc2ncc(F)cn2)C(=O)c2ccc(Br)cc21 [Example 294, 2-[(4r)-6-bromo-4-[(1r)-1-fluoroethyl]-1-oxo-3,4-dihydroisoquinolin-2-yl]-N-(5-fluoropyrimidin-2-yl)acetamide]
[1]
  pIC50: > 5.00
[2]
  pIC50: 6.69

## O=C(CN1CC(C(F)(F)F)c2cc(I)ccc2C1=O)Nc1ncc(F)cn1 (centres unmarked) [Example 301, N-(5-fluoropyrimidin-2-yl)-2-[6-iodo-1-oxo-4-(trifluoromethyl)-3,4-dihydroisoquinolin-2-yl]acetamide]
[1]
  pIC50: > 5.00
[2]
  pIC50: 7.57

## C#Cc1ccc2c(c1F)C1(CC1)CN(CC(=O)Nc1ncc(F)cn1)C2=O [Example 302, 2-(6-ethynyl-5-fluoro-1-oxospiro[3H-isoquinoline-4,1′-cyclopropane]-2-yl)-N-(5-fluoropyrimidin-2-yl)acetamide]
[1]
  pIC50: > 5.00
[2]
  pIC50: 6.27

## O=C(CN1CC2(CC2)c2c(ccc(C3(F)CC3)c2F)C1=O)Nc1ncc(F)cn1 [Example 307, 2-[5-fluoro-6-(1-fluorocyclopropyl)-1-oxospiro[3H-isoquinoline-4,1′-cyclopropane]-2-yl]-N-(5-fluoropyrimidin-2-yl)acetamide]
[2]
  pIC50: 6.05

## O=C(CN1C[C@]2(C[C@H]2F)c2cc(Br)ccc2C1=O)Nc1ncc(C(F)(F)F)cn1 [Example 308, 2-[(2′R,4S)-6-bromo-2′-fluoro-1-oxospiro[3H-isoquinoline-4,1′-cyclopropane]-2-yl]-N-[5-(trifluoromethyl)pyrimidin-2-yl]acetamide]
[2]
  pIC50: 7.60

## O=C(CN1CC2(CC2)c2cc(Br)ccc2C1=O)Nc1ncc(C2CC2(F)F)cn1 (centres unmarked) [Example 309, 2-(6-bromo-1-oxospiro[3H-isoquinoline-4,1′-cyclopropane]-2-yl)-N-[5-(2,2-difluorocyclopropyl)pyrimidin-2-yl]acetamide]
[2]
  pIC50: 6.16

## O=C(CN1CC2(CC2)c2c(ccc(OC(F)F)c2F)C1=O)Nc1ncc(F)cn1 [Example 310, 2-[6-(difluoromethoxy)-5-fluoro-1-oxospiro[3H-isoquinoline-4,1′-cyclopropane]-2-yl]-N-(5-fluoropyrimidin-2-yl)acetamide]
[2]
  pIC50: 5.97

## O=C(CN1CC2(CC2)c2nc(C3CC3)ccc2C1=O)Nc1ncc(F)cn1 [Example 311, 2-(2-cyclopropyl-5-oxospiro[7H-1,6-naphthyridine-8,1′-cyclopropane]-6-yl)-N-(5-fluoropyrimidin-2-yl)acetamide]
[2]
  pIC50: 5.85

## CC(F)c1ccc2c(c1)C1(CC1)CN(CC(=O)Nc1ncc(F)cn1)C2=O (centres unmarked) [Example 312, 2-[6-(1-fluoroethyl)-1-oxospiro[3H-isoquinoline-4,1′-cyclopropane]-2-yl]-N-(5-fluoropyrimidin-2-yl)acetamide]
[2]
  pIC50: 5.99
